{
  "source": "patent US6737425B1",
  "about": "“N,N-substituted cyclic amine derivatives” (Eisai Co., Ltd., priority 1998, dated 2004)",
  "system": "rat model with occlusion in the middle cerebral artery",
  "experiment": "Effect (I) of reducing infarct volume in a rat model with occlusion in the middle cerebral artery (2 hours occlusion)",
  "assay_type": "in vivo",
  "conditions": "for Infarct volume in the cerebral cortex, Mean: from 30 minutes after occlusion, 6 hours, 2 hours occlusion, 24 hours after occlusion; for reduction of infarct volume in the cerebral cortex: vs control group",
  "procedure": "Effect (I) of Reducing Infarct Volume in a Rat Model with Occlusion in the Middle Cerebral Artery\nThe compound in Example 1 was selected as the typical example of the compound of the present invention, and this sample was dissolved in 5.28% mannitol to be adjusted to a dosage of 5 or 10 mg/kg/h just before use. The concentration of the sample was calculated on the basis of the average weight of animals, as shown in the following example. The average weight was determined by measuring the weights of all animals to be used in the experiment.\nFor occlusion in the middle cerebral artery, an embolus prepared from nylon yarn of 4-0 monofilament (Ethicon, Inc., Somerville, N.J., USA) was used. The end of the nylon embolus was previously rounded with flame, and it was cut into fragments of 25 mm in length, and each fragment was marked at a position 17 mm apart from the end with an oil-based felt pen.\nImplantation of a catheter for intravenous administration (Atom venous catheter 3Fr, Atom Medical Co., Ltd., Tokyo) was conducted under anesthesia with 70% laughing gas-2% halothane. The catheter filled with physiological saline was inserted through the thigh vein in the left leg.\nOcclusion in the middle cerebral artery was conducted in accordance with the method of Longa et al. (12). Just after the catheter was implanted, the operation was conducted under anesthesia with 70% laughing gas-2% halothane. A rat was allowed to lie on the back and the cervical region was cut open under a stereoscopic microscope for operation, and the part where the common carotid artery at the right side branched into the external carotid artery and the internal carotid artery was confirmed. The external carotid artery was cut at the peripheral side, and the nylon embolus was inserted through the end of the cut external carotid artery into the internal carotid artery. The embolus was inserted until the position 17 mm apart from the end of the embolus reached the point where the external carotid artery was joined to the internal carotid artery, and the embolus was fixed. To initiate blood stream again, the nylon embolus was removed 2 hours after the middle cerebral artery was occluded. […]\nTwenty four hours after the middle cerebral artery was occluded, the head was cut off from the rat and the brain was taken out. […] The sample was left at room temperature for at least 1 hour in the TTC solution and then measured for the infarct area. […]",
  "note": "Several values for one entry are separate records, joined by “and”; a condition that tells them apart may be missing. Equal entries are not always repeated.",
  "data": [
    {"compound": "CC(C)C(C#N)(CCCN1CCN(CCOc2ccc(F)cc2)CC1)c1ccccc1", "note": "(stereo not shown) [Example 1, 1-[(4-Cyano-5-methyl-4-phenyl)hexyl]-4-[2-(4-fluorophenoxy)ethyl]piperazine]", "values": [
      {"measurement": "Infarct volume in the cerebral cortex, Mean", "setting": "5 mg/kg/h i.v. (table: 5 mg/kg)", "result": "162.2±16.3 mm^3 and 162.17 mm^3"},
      {"measurement": "reduction of infarct volume in the cerebral cortex", "setting": "5 mg/kg/h i.v.", "result": 28, "unit": "%"},
      {"measurement": "Infarct volume in the cerebral cortex, Mean", "setting": "10 mg/kg/h i.v. (table: 10 mg/kg)", "result": "135.5±26.2 mm^3 and 135.50 mm^3"},
      {"measurement": "reduction of infarct volume in the cerebral cortex", "setting": "10 mg/kg/h i.v.", "result": 40, "unit": "%"}
    ]}
  ]
}
